Source: the NIST ThermoML archive (doi:10.1016/j.tca.2013.08.031)
Where “and” joins values, the source holds several entries; their conditions need not be identical. Equal values may be shown once.

Test: molar heat capacity at constant volume
Conditions: Fluid (supercritical or subcritical phases), Vacuum adiabatic calorimetry

CCC(C)O (stereo unspecified) [butan-2-ol]
Conditions | molar heat capacity at constant volume
375.31 K, Mass density=735.98 kg/m3 | 219.47 J/K/mol
375.53 K, Mass density=735.98 kg/m3 | 217.99 J/K/mol
375.75 K, Mass density=735.98 kg/m3 | 218.29 J/K/mol
375.97 K, Mass density=735.98 kg/m3 | 219.25 J/K/mol
376.19 K, Mass density=735.98 kg/m3 | 217.99 J/K/mol
376.42 K, Mass density=735.98 kg/m3 | 219.47 J/K/mol
376.64 K, Mass density=735.98 kg/m3 | 218.29 J/K/mol
376.86 K, Mass density=735.98 kg/m3 | 219.47 J/K/mol
377.08 K, Mass density=735.98 kg/m3 | 217.77 J/K/mol
377.3 K, Mass density=735.98 kg/m3 | 219.55 J/K/mol
377.52 K, Mass density=735.98 kg/m3 | 219.33 J/K/mol
407.02 K, Mass density=683.53 kg/m3 | 273.88 J/K/mol
407.23 K, Mass density=683.53 kg/m3 | 278.47 J/K/mol
407.44 K, Mass density=683.53 kg/m3 | 275.51 J/K/mol
407.65 K, Mass density=683.53 kg/m3 | 274.18 J/K/mol
407.86 K, Mass density=683.53 kg/m3 | 273.95 J/K/mol
408.07 K, Mass density=683.53 kg/m3 | 279.22 J/K/mol
408.28 K, Mass density=683.53 kg/m3 | 277.29 J/K/mol
408.49 K, Mass density=683.53 kg/m3 | 260.39 J/K/mol
408.7 K, Mass density=683.53 kg/m3 | 246.01 J/K/mol
408.91 K, Mass density=683.53 kg/m3 | 240.23 J/K/mol
409.12 K, Mass density=683.53 kg/m3 | 236.6 J/K/mol
409.33 K, Mass density=683.53 kg/m3 | 234.08 J/K/mol
409.54 K, Mass density=683.53 kg/m3 | 232.22 J/K/mol
409.75 K, Mass density=683.53 kg/m3 | 224.59 J/K/mol
409.96 K, Mass density=683.53 kg/m3 | 223.4 J/K/mol
410.17 K, Mass density=683.53 kg/m3 | 224.22 J/K/mol
410.38 K, Mass density=683.53 kg/m3 | 222.66 J/K/mol
413.11 K, Mass density=648.53 kg/m3 | 272.62 J/K/mol
413.31 K, Mass density=648.53 kg/m3 | 273.21 J/K/mol
413.52 K, Mass density=648.53 kg/m3 | 273.66 J/K/mol
413.73 K, Mass density=648.53 kg/m3 | 273.51 J/K/mol
413.94 K, Mass density=648.53 kg/m3 | 272.62 J/K/mol
414.15 K, Mass density=648.53 kg/m3 | 272.84 J/K/mol
414.78 K, Mass density=683.53 kg/m3 | 226.66 J/K/mol
414.99 K, Mass density=683.53 kg/m3 | 226.89 J/K/mol
415.19 K, Mass density=683.53 kg/m3 | 227.55 J/K/mol and 227.85 J/K/mol
419.77 K, Mass density=683.53 kg/m3 | 228.67 J/K/mol
419.97 K, Mass density=683.53 kg/m3 | 227.55 J/K/mol
420.6 K, Mass density=683.53 kg/m3 | 230.59 J/K/mol
421.42 K, Mass density=683.53 kg/m3 | 231.85 J/K/mol
421.63 K, Mass density=683.53 kg/m3 | 230 J/K/mol
422.25 K, Mass density=683.53 kg/m3 | 230.81 J/K/mol
422.46 K, Mass density=683.53 kg/m3 | 231.11 J/K/mol
422.66 K, Mass density=683.53 kg/m3 | 231.85 J/K/mol
422.87 K, Mass density=683.53 kg/m3 | 231.33 J/K/mol
423.08 K, Mass density=683.53 kg/m3 | 231.41 J/K/mol
423.28 K, Mass density=683.53 kg/m3 | 230.81 J/K/mol
423.49 K, Mass density=683.53 kg/m3 | 231.48 J/K/mol
423.69 K, Mass density=683.53 kg/m3 | 231.93 J/K/mol
424.31 K, Mass density=683.53 kg/m3 | 231.11 J/K/mol
424.52 K, Mass density=683.53 kg/m3 | 230.52 J/K/mol
424.72 K, Mass density=683.53 kg/m3 | 230.81 J/K/mol
424.93 K, Mass density=683.53 kg/m3 | 230.44 J/K/mol
425.14 K, Mass density=683.53 kg/m3 | 231.33 J/K/mol
425.75 K, Mass density=683.53 kg/m3 | 231.19 J/K/mol
425.96 K, Mass density=683.53 kg/m3 | 230.89 J/K/mol and 228.44 J/K/mol
426.16 K, Mass density=683.53 kg/m3 | 227.48 J/K/mol
426.37 K, Mass density=683.53 kg/m3 | 226.74 J/K/mol
426.58 K, Mass density=683.53 kg/m3 | 227.41 J/K/mol
426.78 K, Mass density=683.53 kg/m3 | 227.03 J/K/mol
426.99 K, Mass density=683.53 kg/m3 | 227.48 J/K/mol
431.29 K, Mass density=648.53 kg/m3 | 278.03 J/K/mol
431.49 K, Mass density=648.53 kg/m3 | 279.14 J/K/mol
431.7 K, Mass density=648.53 kg/m3 | 277.66 J/K/mol
431.9 K, Mass density=648.53 kg/m3 | 277.88 J/K/mol
432.31 K, Mass density=648.53 kg/m3 | 278.77 J/K/mol
432.51 K, Mass density=648.53 kg/m3 | 277.14 J/K/mol
432.72 K, Mass density=648.53 kg/m3 | 277.44 J/K/mol
432.92 K, Mass density=648.53 kg/m3 | 279.22 J/K/mol
432.92 K, Mass density=683.53 kg/m3 | 227.18 J/K/mol
433.12 K, Mass density=648.53 kg/m3 | 278.55 J/K/mol
433.12 K, Mass density=683.53 kg/m3 | 228 J/K/mol
433.33 K, Mass density=648.53 kg/m3 | 272.99 J/K/mol
433.33 K, Mass density=683.53 kg/m3 | 227.63 J/K/mol
433.53 K, Mass density=648.53 kg/m3 | 225.03 J/K/mol
433.53 K, Mass density=683.53 kg/m3 | 227.78 J/K/mol
433.73 K, Mass density=648.53 kg/m3 | 224.81 J/K/mol
433.73 K, Mass density=683.53 kg/m3 | 228.29 J/K/mol
433.94 K, Mass density=648.53 kg/m3 | 222.29 J/K/mol
434.14 K, Mass density=648.53 kg/m3 | 223.48 J/K/mol
434.55 K, Mass density=648.53 kg/m3 | 221.92 J/K/mol
434.75 K, Mass density=648.53 kg/m3 | 221.25 J/K/mol
434.96 K, Mass density=648.53 kg/m3 | 222.96 J/K/mol
435.16 K, Mass density=648.53 kg/m3 | 222.74 J/K/mol
435.36 K, Mass density=648.53 kg/m3 | 222.88 J/K/mol
449.87 K, Mass density=598.18 kg/m3 | 278.18 J/K/mol
450.07 K, Mass density=598.18 kg/m3 | 277.14 J/K/mol
450.27 K, Mass density=598.18 kg/m3 | 279.22 J/K/mol
450.47 K, Mass density=598.18 kg/m3 | 276.18 J/K/mol
450.66 K, Mass density=598.18 kg/m3 | 277.36 J/K/mol
457.62 K, Mass density=648.53 kg/m3 | 222.14 J/K/mol
457.82 K, Mass density=598.18 kg/m3 | 274.62 J/K/mol
457.82 K, Mass density=648.53 kg/m3 | 221.85 J/K/mol
458.02 K, Mass density=598.18 kg/m3 | 274.4 J/K/mol
458.02 K, Mass density=648.53 kg/m3 | 222.88 J/K/mol
458.22 K, Mass density=598.18 kg/m3 | 277.66 J/K/mol
458.22 K, Mass density=648.53 kg/m3 | 224.51 J/K/mol
458.41 K, Mass density=598.18 kg/m3 | 277.29 J/K/mol
458.41 K, Mass density=648.53 kg/m3 | 223.62 J/K/mol
458.61 K, Mass density=598.18 kg/m3 | 278.85 J/K/mol
458.81 K, Mass density=598.18 kg/m3 | 277.59 J/K/mol
459.01 K, Mass density=598.18 kg/m3 | 279.44 J/K/mol
462.16 K, Mass density=598.18 kg/m3 | 275.88 J/K/mol
462.36 K, Mass density=598.18 kg/m3 | 274.69 J/K/mol
462.56 K, Mass density=598.18 kg/m3 | 273.58 J/K/mol
